# Data as given in ChEMBL document CHEMBL1152127, “Kinetic isotope effects in the oxidation of arachidonic acid by soybean lipoxygenase-1” (Bioorg Med Chem Lett, 2008).
# Assays:
# [1] = test system: Glycine max; experiment: Activity of soybean lipoxygenase 1
# [2] = test system: Glycine max; experiment: Activity of soybean lipoxygenase 1 assessed as rate of oxidation under diffusion-controlled reaction at 5 deg C
# [3] = test system: Glycine max; experiment: Activity of soybean lipoxygenase 1 assessed as rate of oxidation under diffusion-controlled reaction at 37 deg C
# [4] = test system: Glycine max; experiment: Activity of soybean lipoxygenase 1 assessed as rate of oxidation under diffusion-controlled reaction at 20 deg C
SMILES,Km [1],Activity [2],Activity [3],Activity [4]
CCCCC/C=C\C/C=C\CCCCCCCC(=O)O,39 µM,–,–,–
CCCCC/C=C\C/C=C\C/C=C\C/C=C\CCCC(=O)O,15 µM,18%,28%,56%
